Reference: EP4577243B1, “STABLE LIPID OR LIPIDOID NANOPARTICLE SUSPENSIONS” (Ethris GmbH, priority 2022, dated 2024)

Experiment: pKa of ionizable lipids (Tables 1 to 3)
Type: physicochemical
Details: Table 2

## CCCCCCCC(=O)N(CCCN(C)C)C(CCCCCCCCC(=O)OC(CCCCCC)CCCCCC)CCCCCCCCC(=O)OC(CCCCCC)CCCCCC [II-10]
  pKa: 6.16
